Tested on: human embryonic stem cell derived neural stem cells (NSCs)
Experiment: Neural Stem Cell Proliferation Assay (Neurogenesis Assay, ATP levels by CellTiterGlo)
Format: cell-based
Settings: 96 h, compound concentration at which 150% activity of control (100%) is reached, NSC proliferation, 4 days incubation
Experimental: Neural Stem Cell Proliferation Assay
Neurogenic properties of small molecules are determined based on the proliferation of human embryonic stem cell derived neural stem cells (NSCs) which were derived via a dual smad inhibition as previously described (Chambers, S. M., et al., Highly efficient neural conversion of human ES and iPS cells by dual inhibition of SMAD signaling, Nature biotechnology, 2009. 27(3): p. 275-80.)
Compounds respond is measured by the increase in cells based on ATP levels
(Promega:CellTiterGlo®) after an incubation period of 4 days.
NSCs are thawed and expanded over 3 passages. On the 14th day, NSCs are seeded in Polyornithin/Laminin coated 384 well plates at a cell density of 21′000 cells/cm^2 in a media volume of 38 μl.
4 hours after cell seeding, compound solutions are added at a volume of 2 μl. Stock solutions of the compounds (water, 5% DMSO) are diluted to obtain a dose response (11 points, dilution factor is 2), ranging from 8 μM to 8 nM. Controls are run to consistently determine the neurogenic properties of the cells:
Negative (neutral) control is cell culture Media (final DMSO concentration: 0.25%).
Positive controls are: • 1. cell culture Media+100 ng/ml FGF2 (final DMSO concentration: 0.1%) • 2. cell culture Media+20 ng/ml EGF (final DMSO concentration: 0.1%) • 3. cell culture Media+100 ng/ml Wnt3a (final DMSO concentration: 0.1%)
After 4 days incubation at 37° C., 5% CO2, the amount of ATP per well is quantified. The ATP concentration is proportional to the cell number. ATP is quantified by using the Promega CellTiterGlo® kit. The CellTiterGlo® reagents contain a cell lysis buffer, a thermo stable luciferase (UltraGlo™ recombinant luciferase), magnesium and luciferin. Luciferin reacts with ATP producing oxyluciferin, AMP and light. The luminescence signal is proportional to the ATP content.
The value of negative (neutral) control is determined for each assay plate by taking the average of 16 negative control wells. The neurogenic compound response is calculated for each compound as (compound/Negative Control)*100.
The values of EC150 from the dose response curve are determined for each test compound. The EC150 is the compound concentration at which 150% activity of control (100%) is reached.

Row | SMILES | EC (150% of control)
1 | O=C(NCC(F)(F)F)c1cnc2cncc(-c3ccccc3F)c2c1 [Example 14, 5-(2-Fluorophenyl)-N-(2,2,2-trifluoroethyl)-1,7-naphthyridine-3-carboxamide] | 1.21 µM
2 | CS(=O)(=O)c1cccc(CNC(=O)c2cnc3cncc(-c4ccc(Cl)cc4)c3c2)c1 [Example 19, 5-(4-Chlorophenyl)-N-(3-(methylsulfonyl)benzyl)-1,7-naphthyridine-3-carboxamide] | 3.18 µM
3 | NC(=O)c1cnc2cncc(-c3ccc(C(F)(F)F)cc3)c2c1 [Example 10, 5-(4-(Trifluoromethyl)phenyl)-1,7-naphthyridine-3-carboxamide] | 0.3 µM
4 | NC(=O)c1cnc2cncc(-c3cccc(OC(F)(F)F)c3)c2c1 [Example 23, 5-(3-(Trifluoromethoxy)phenyl)-1,7-naphthyridine-3-carboxamide] | 5.73 µM
5 | NC(=O)c1cnc2cncc(-c3cc(F)c(F)c(F)c3)c2c1 [Example 4, 5-(3,4,5-Trifluorophenyl)-1,7-naphthyridine-3-carboxamide] | 1.9 µM
6 | O=C(NCC(F)(F)F)c1cnc2cncc(-c3ccc(F)cc3F)c2c1 [Example 15, 5-(2,4-Difluorophenyl)-N-(2,2,2-trifluoroethyl)-1,7-naphthyridine-3-carboxamide] | 1.36 µM
7 | NC(=O)c1cnc2cncc(-c3ccc(Cl)cc3F)c2c1 [Example 12, 5-(4-Chloro-2-fluorophenyl)-1,7-naphthyridine-3-carboxamide] | 0.07 µM
8 | NC(=O)c1cnc2cncc(-c3ccc(F)c(F)c3)c2c1 [Example 6, 5-(3,4-Difluorophenyl)-1,7-naphthyridine-3-carboxamide] | 0.55 µM
9 | CS(=O)(=O)c1ccc(CNC(=O)c2cnc3cncc(-c4ccc(Cl)cc4)c3c2)cc1 [Example 18, 5-(4-Chlorophenyl)-N-(4-(methylsulfonyl)benzyl)-1,7-naphthyridine-3-carboxamide] | 0.25 µM
10 | NC(=O)c1cnc2cncc(-c3ccc(F)cc3)c2c1 [Example 5, 5-(4-Fluorophenyl)-1,7-naphthyridine-3-carboxamide] | 1.1 µM
11 | CS(=O)(=O)CCNC(=O)c1cnc2cncc(-c3ccc(Cl)cc3F)c2c1 [Example 13, 5-(4-Chloro-2-fluorophenyl)-N-(2-(methylsulfonyl)ethyl)-1,7-naphthyridine-3-carboxamide] | 1.51 µM
12 | NC(=O)c1cnc2cncc(-c3ccc(F)cc3F)c2c1 [Example 7, 5-(2,4-Difluorophenyl)-1,7-naphthyridine-3-carboxamide] | 0.48 µM
13 | NC(=O)c1cnc2cncc(-c3ccccc3F)c2c1 [Example 3, 5-(2-Fluorophenyl)-1,7-naphthyridine-3-carboxamide] | 1.12 µM
14 | COc1cccc(-c2cncc3ncc(C(N)=O)cc23)c1 [Example 22, 5-(3-Methoxyphenyl)-1,7-naphthyridine-3-carboxamide] | 1.93 µM
15 | COC(=O)c1cncc2ncc(C(N)=O)cc12 [Example 24, Methyl 3-carbamoyl-1,7-naphthyridine-5-carboxylate] | 3.2 µM
16 | NC(=O)c1cnc2cncc(N3CCC(F)(F)CC3)c2c1 [Example 26, 5-(4,4-Difluoropiperidin-1-yl)-1,7-naphthyridine-3-carboxamide] | 2.09 µM
17 | NC(=O)c1cnc2cncc(-c3ccc(Cl)nc3)c2c1 [Example 27, 5-(6-Chloropyridin-3-yl)-1,7-naphthyridine-3-carboxamide] | 1.08 µM
18 | O=C(NCC1CC1)c1cnc2cncc(-c3ccc(Cl)cc3)c2c1 [Example 20, 5-(4-Chlorophenyl)-N-(cyclopropylmethyl)-1,7-naphthyridine-3-carboxamide] | 4.24 µM
19 | Cc1nc2cncc(-c3ccc(Cl)cc3)c2cc1C(N)=O [Example 11, 5-(4-Chlorophenyl)-2-methyl-1,7-naphthyridine-3-carboxamide] | 0.12 µM
20 | CS(=O)(=O)c1ccc(-c2cncc3ncc(C(N)=O)cc23)cc1 [Example 9, 5-(4-(Methylsulfonyl)phenyl)-1,7-naphthyridine-3-carboxamide] | 1.58 µM
21 | O=C(NCC(F)(F)F)c1cnc2cncc(-c3ccc(F)cc3)c2c1 [Example 17, 5-(4-Fluorophenyl)-N-(2,2,2-trifluoroethyl)-1,7-naphthyridine-3-carboxamide] | 1.13 µM
22 | NC(=O)c1cnc2cncc(-c3ccc(OC(F)(F)F)cc3)c2c1 [Example 2, 5-(4-(Trifluoromethoxy)phenyl)-1,7-naphthyridine-3-carboxamide] | 0.47 µM
23 | NC(=O)c1cnc2cncc(-c3ccc(Cl)cc3)c2c1 [Example 1, 5-(4-Chlorophenyl)-1,7-naphthyridine-3-carboxamide] | 0.09 µM
24 | COCCNC(=O)c1cnc2cncc(-c3ccc(Cl)cc3)c2c1 [Example 21, 5-(4-Chlorophenyl)-N-(2-methoxyethyl)-1,7-naphthyridine-3-carboxamide] | 4.6 µM
25 | NC(=O)c1cnc2cncc(N3CCOCC3)c2c1 [Example 16, 5-Morpholino-1,7-naphthyridine-3-carboxamide] | 1.43 µM
26 | N#Cc1ccc(-c2cncc3ncc(C(N)=O)cc23)cc1 [Example 8, 5-(4-Cyanophenyl)-1,7-naphthyridine-3-carboxamide] | 1.37 µM
27 | NC(=O)c1cnc2cncc(C3=CCOCC3)c2c1 [Example 25, 5-(3,6-Dihydro-2H-pyran-4-yl)-1,7-naphthyridine-3-carboxamide] | 4.41 µM
28 | NC(=O)c1cnc2cncc(-c3ccc(Cl)cc3Cl)c2c1 [Example 28, 5-(2,4-Dichlorophenyl)-1,7-naphthyridine-3-carboxamide] | 0.46 µM

From patent US9688675B2, “1,7-naphthyridine derivatives” (Hoffmann-La Roche Inc., priority 2013, dated 2017)
